Reference: US7892350B2, “Sacrificial agents for fly ash concrete” (Boral Material Technologies Inc., priority 2003, dated 2011)

How the values were obtained:
[1] = Paste air entrainment, Maximum air protocol; details: for Air entrained at 66 min: Air 30 (0.0125 wt %)/X/ButOH=1/4/4, X = the labelled sulfonated SA
Method: (§1) Preparation of pastes: Pastes were prepared by pouring 400 g of cementitious powder in the 350-400 g of solution (water and additives) in a vessel (8.4 cm dia,×14.5 cm height) while gently stirring with a spatula; the exact quantity of water depends on the selected W/B ratio (see below); rapid hand mixing was continued for 1 minute, followed by intense stirring at 25° C. during 2 min using a hand-held mixer (BRAUN model MR400). The level of air entrained is dependent on the mode of utilisation of the mixer, namely the height of the mixer from the bottom of the vessel and the length of the mixing stroke; the following protocols were adopted.
(§2) Fluidity measurements: For all air entrainment measurements, the initial fluidity of the paste (without additives) was controlled using the ‘mini-slump’ procedure widely used for paste and grouts. In this protocol, a portion of the paste was transferred into the min-slump cone (a 2¼″ high, 1½″ bottom diameter, ¾″ top diameter cone); excess paste was skimmed-off with a straight; the cone was then raised and the spread diameter of the paste was recorded (average of two measurements). The fluidity is measured at 10 minutes after mixing. The paste is returned to the batch and reserved for subsequent AE measurements. The fluidity of the paste (without SA and AEA) is adjusted by changing the amount of water (water/cementitious ratio) which yields a spread diameter of 115±5 mm. The latter is monitored regularly.
(§3) Air entrainment measurements: For air entrainment measurements, a portion of the paste was transferred to overfill a Plexiglas cylinder (3¾ inches height, 2 inches interior diameter), which was then levelled flush to the top of the cylinder with a straight edge. The mass of the filled cylinder, minus the weight of the empty cylinder, is then recorded and used to calculate the amount of air according to the following formula: […]
(§4) This procedure was carried out at three times at 30 min. intervals (6, 36 and 66 min); the paste was let to stand at rest between measurements, and was stirred gently by hand for one minute prior to the subsequent air entrainment measurements.
Other combinations of air entrainment agents and sacrificial agents were prepared as stock solutions following the procedure outlined above, adjusting the weights of the various components to achieve the desired component ratios.

[2] = Adsorption/precipitation of SA or AEA in 10 wt % aqueous fly ash or cement slurries at pH 12.5; format: physicochemical; details: initial SA 3 mM
Method: Adsorption/Precipitation of Sacrificial Agents (SA) or Air Entrainment Agents (AEA) in 10 wt % Aqueous Fly Ash Slurries at pH 12.5:
(§5) The pH of the solutions were adjusted to 12.5 with NaOH.
Adsorption/Precipitation in FA or Cement Slurries: In this protocol, aqueous slurries containing 10 wt % FA or cement were prepared as described above, except that in this case, the cement was added directly into a solution of the SA or AEA in the following proportions: 3.0 g cement or FA, and 27 g of 3 mM sacrificial agent, or 27 g of 1050 mg/l AEA; the latter were prepared in the same way as in the precipitation test above. The residual (soluble) SA or AEA content in the solution was also determined by UV or COD.

[3] = Precipitation in slurry extract or leachate; format: physicochemical; details: pH 12.5, entries in parentheses
Method: as §5
Precipitation in slurry extract or leachate: To perform this test, FA or cement leachate were prepared in advance, by filtering two liters of a 10 wt % FA, or cement, slurry in 0.03N NaOH which had been left to stand under slow agitation for 30 min; 2.5 g of the filtrate solution was mixed with 22.5 g of the SA or AEA solution in a 50 ml polypropylene centrifuge tube; the latter was shaken vigorously in an orbital shaker (Eberbach Corporation) for 30 min at room temperature, centrifuged for 5 min and then the supernatant solution was filtered (0.45 μm). The SA or AEA content of the solution was determined using an Ultraviolet-Visible (UV) spectrometer or by COD (Chemical Oxygen Demand) measurement.
Entries in parentheses: % precipitation when reacted with solutions extracted from the fly ash slurries (Results in Table 5).

[4] = Paste air entrainment, Minimum air protocol
Method: as §1
Minimum air protocol: The BRAUN mixer is positioned at 1.0 inch from the bottom of the mixing vessel and the up-down motion of the mixer is limited to a 1.0 inch displacement; this provided ‘minimum air’ entrained air levels and is later referred to as ‘Minimum air protocol’ (Results reported in Table 6, col. 1 and Table 7).
as §2, §3, §4
Typical mixture compositions for air entrainment measurements in pastes containing a single additive using ‘Minimum air protocol’ (results shown in Table 6, col. 1): […]

Structure (SMILES): O=S(=O)([O-])c1ccc2ccccc2c1.[Na+] [NS, Sodium 2-Naphthalene sulfonate]
- Air entrained at 66 min ([1]; 50:50 fly ash B1 (LOI 4.36%):PCA paste): 7 vol %
- Air entrained at 66 min ([1]; 50:50 fly ash D (LOI […]):PCA paste): 18 vol %
- Air entrained at 66 min ([1]; 50:50 fly ash M2 (LOI 5.34%):PCA paste): 5 vol %
- Air entrained ([1]; PCA cement paste, 0.0125% SA or AEA alone, Maximum air protocol): 2 vol %
- Air entrained at 66 min ([1]; PCA paste, no fly ash): 13 vol %
- Adsorption (wt % Adsorbed) ([2]; 10 wt % PCA cement slurry, Air 30/Air 40 0.105 wt %): 3 wt %
- Adsorption (wt % Adsorbed) ([2]; 10 wt % fly ash B1 (LOI 4.36%) slurry, Air 30/Air 40 0.105 wt %): 8 wt %
- Adsorption (wt % Adsorbed) ([2]; 10 wt % fly ash C1, class C (LOI 1.62%) slurry, Air 30/Air 40 0.105 wt %): 70 wt %
- Adsorption (wt % Adsorbed) ([2]; 10 wt % fly ash C2 (LOI 3.32%) slurry): 5 wt %
- Adsorption (wt % Adsorbed) ([2]; 10 wt % fly ash D, class C (LOI […]) slurry, Air 30/Air 40 0.105 wt %): 59 wt %
- Adsorption (wt % Adsorbed) ([2]; 10 wt % fly ash M1 (LOI […]) slurry, Air 30/Air 40 0.105 wt %): 11 wt %
- Adsorption (wt % Adsorbed) ([2]; 10 wt % fly ash M2 (LOI 5.34%) slurry, Air 30/Air 40 0.105 wt %): 8 wt %
- Adsorption (wt % Adsorbed) ([2]; 10 wt % fly ash M3 (LOI 11.33%) slurry, Air 30/Air 40 0.105 wt %): 10 wt %
- Adsorption (wt % Adsorbed) ([2]; 10 wt % fly ash N (LOI 0.30%) slurry): 5 wt %
- Adsorption (wt % Adsorbed) ([2]; 10 wt % fly ash R (LOI […]) slurry, Air 30/Air 40 0.105 wt %): 24 wt %
- Precipitation (wt % precipitated) ([3]; solution extracted from 10 wt % PCA cement slurry): 1 wt %
- Precipitation (wt % precipitated) ([3]; solution extracted from 10 wt % fly ash B1 (LOI 4.36%) slurry): 0 wt %
- Precipitation (wt % precipitated) ([3]; solution extracted from 10 wt % fly ash C1, class C (LOI 1.62%) slurry): 10 wt %
- Precipitation (wt % precipitated) ([3]; solution extracted from 10 wt % fly ash C2 (LOI 3.32%) slurry): 0 wt %
- Precipitation (wt % precipitated) ([3]; solution extracted from 10 wt % fly ash D, class C (LOI […]) slurry): 1 wt %
- Precipitation (wt % precipitated) ([3]; solution extracted from 10 wt % fly ash M1 (LOI […]) slurry): 0 wt %
- Precipitation (wt % precipitated) ([3]; solution extracted from 10 wt % fly ash M2 (LOI 5.34%) slurry): 0 wt %
- Precipitation (wt % precipitated) ([3]; solution extracted from 10 wt % fly ash M3 (LOI 11.33%) slurry): 0 wt %
- Precipitation (wt % precipitated) ([3]; solution extracted from 10 wt % fly ash N (LOI 0.30%) slurry): 0 wt %
- Precipitation (wt % precipitated) ([3]; solution extracted from 10 wt % fly ash R (LOI […]) slurry): 0 wt %
- Air entrained ([4]; 50:50 fly ash B1 (LOI 4.36%):PCA paste, 0.1 wt % Air 30 alone or with 0.05 wt % of the SA): 4 vol %
- Air entrained ([4]; 50:50 fly ash C1 (LOI 1.62%):PCA paste, 0.1 wt % Air 30 alone or with 0.05 wt % of the SA): 12 vol %
- Air entrained ([4]; 50:50 fly ash D (LOI […]):PCA paste, 0.1 wt % Air 30 alone or with 0.05 wt % of the SA): 6 vol %
- Air entrained ([4]; 50:50 fly ash M1 (LOI […]):PCA paste, 0.1 wt % Air 30 alone or with 0.05 wt % of the SA): 4 vol %
- Air entrained ([4]; 50:50 fly ash M2 (LOI 5.34%):PCA paste, 0.1 wt % Air 30 alone or with 0.05 wt % of the SA): 3 vol %
- Air entrained ([4]; 50:50 fly ash M3 (LOI 11.33%):PCA paste, 0.1 wt % Air 30 alone or with 0.05 wt % of the SA): 4 vol %
- Air entrained ([4]; 50:50 fly ash R (LOI […]):PCA paste, 0.1 wt % Air 30 alone or with 0.05 wt % of the SA): 6 vol %
- Air entrained ([4]; PCA cement paste, 0.1% SA or AEA alone, Minimum air protocol): 0 vol %
- Average of air entrained ([4]; over the fly ash:PCA pastes of Table 7, 0.1 wt % Air 30 alone or with 0.05 wt % of the SA): 5%
